Measured values reported in BigSolDB 2.1.

Brc1c(Br)c(Br)c(Oc2c(Br)c(Br)c(Br)c(Br)c2Br)c(Br)c1Br
solubility (mole fraction)
Conditions | in THF | in acetone | in ethyl acetate | in limonene | in toluene
283 K | 0.00449 | 4.4e-05 | 0.000133 | 0.00162 | 0.00274
293 K | 0.00524 | 6e-05 | 0.000173 | 0.00242 | 0.00362
303 K | 0.00607 | 9.1e-05 | 0.000252 | 0.00282 | 0.0052
313 K | 0.00695 | 0.000119 | 0.000346 | 0.00397 | 0.00651
323 K | 0.0085 | 0.000145 | 0.000455 | 0.00485 | 0.00771
